In US10344019B2 (priority 2010, dated 2019) one finds EC50 data, which are given here for 11 molecules.

Like-named read-outs stand apart in the source and are kept apart here.

Common to all, as to assay: microbe, parasite or virus in culture
What all share (assay type): cell-based

Assay [1] has as its system HCV 1a RLuc cells (dicistronic genotype 1a H77 replicon, RLuc reporter). The conditions noted are these: genotype 1a H77 replicon, read-out: 1a. On the procedure:
(§1) Evaluation of cell-based anti-HCV activity: Antiviral potency (EC50) was determined using a Renilla luciferase (RLuc)-based HCV replicon reporter assay. To perform the assay for genotype 1 and 2a JFH-1, HCV 1b RLuc cells (harboring a dicistronic genotype 1b Con1 replicon that encodes a RLuc reporter), or HCV 1a RLuc cells (harboring a dicistronic genotype 1a H77 replicon that encodes a RLuc reporter), or HCV 2a JFH-1 Rluc cells (harboring a dicistronic genotype 2a JFH-1 replicon that encodes a RLuc reporter) were dispensed into 384-well plates. To perform the assay for genotype 2a (with M31 present) or 2b, HCV 2a Rluc or 2b Rluc cells (both with M31 present) harboring a dicistronic NS5A chimeric genotype 2a JFH-1 replicon that encodes a RLuc reporter and either genotype 2a J6 strain NS5A gene or genotype 2b MD2b-1 NS5A gene (based on Los Alamos HCV database isolates, both with M31 present) respectively, were dispensed into 384-well plates. To perform the assay for genotype 3 and 4, HCV 3a RLuc or 4a Rluc cells harboring a dicistronic NS5A chimeric genotype 1b Con1 replicon that encodes a RLuc reporter and either a consensus genotype 3a NS5A gene or genotype 4a NS5A gene (based on Los Alamos HCV database isolates) respectively, were dispensed into 384-well plates. Compounds were re-suspended in DMSO at a concentration of 10 mM and serially diluted in DMSO either manually or using an automated pipeting instrument. Serially diluted compounds were mixed with cell culture media and added to the seeded cells. […] 72 hours later, cells were lysed and Renilla luciferase activity quantified as recommended by the manufacturer (Promega-Madison, Wis.). Non-linear regression was performed to calculate EC50 values.

Assay [2] deals with HCV 1b RLuc cells (dicistronic genotype 1b Con1 replicon, RLuc reporter). On the procedure: as §1
The subject of assay [3] is HCV 2a JFH-1 Rluc cells (dicistronic genotype 2a JFH-1 replicon, RLuc reporter). The conditions noted are these: genotype 2a JFH-1 replicon, read-out: 2a JFH. As to the method: as §1
Background: In antiviral work, replicon cells carry a viral genome segment that copies itself.

For assay [4], the system named is HCV 3a RLuc cells (NS5A chimeric genotype 1b Con1 replicon with consensus genotype 3a NS5A gene). As to the method:
as §1

[5] abbreviates: Hepatitis C virus, RLuc reporter.
Setting [6] is: Hepatitis C virus, read-out: 1b (nM).
The mark [7] stands for this setting: Hepatitis C virus, read-out: 3a, genotype 3a NS5A chimeric 1b Con1 replicon.
The mark [8] stands for this setting: Hepatitis C virus, 72 h, Table 2, 72 hours.
Setting [9] is: Hepatitis C virus, 72 h, read-out: 1b (nM).
Setting [10] is: Hepatitis C virus, read-out: 3a, Table 2, genotype 3a NS5A chimeric replicon.

`COC(=O)N[C@H](C(=O)N1CCC[C@H]1c1ncc(-c2ccc3cc(-c4ccc5c(ccc6nc([C@@H]7CCCN7C(=O)[C@H](NC(=O)OC)c7ccccc7)[nH]c65)c4)ccc3c2)[nH]1)C1CCOCC1` [Example 173]: the EC50 in assay [1] (setting [5]) is 0.001 to 0.999 nM; in assay [2] (setting [6]) it was 0.024 nM; in assay [3] (setting [5]), 0.001 to 0.999 nM; in assay [4] (setting [7]), 0.001 to 0.99 nM.

For the molecule `COC(=O)N[C@H](C(=O)N1CCC[C@H]1c1nc2c([nH]1)-c1ccc(-c3ccc4cc(-c5cnc([C@@H]6COCCN6C(=O)[C@H](NC(=O)OC)c6ccccc6)[nH]5)ccc4c3)cc1CC2)C(C)C` [Example 211], the EC50 was 0.001 to 0.999 nM in assay [1] (setting [5]), 0.009 nM in assay [2] (setting [6]), 1 to 44 nM in assay [3] (setting [5]) and 1 to 4.99 nM in assay [4] (setting [7]).

For `COC(=O)N[C@H](C(=O)N1CCC[C@H]1c1ncc(-c2ccc3cc(-c4ccc(-c5cnc([C@]6(F)CCCN6C(=O)[C@H]6c7ccccc7CCN6C)[nH]5)cc4)ccc3c2)[nH]1)C(C)C` [Example 152], the EC50 in assay [1] (setting [5]) is above 44 nM; in assay [2] (setting [6]), 0.751 nM; in assay [3] (setting [5]), above 44 nM; in assay [4] (setting [7]), 1 to 4.99 nM.

Regarding `COC(=O)N[C@H](C(=O)N1CCC[C@H]1c1ncc(-c2ccc(-c3ccc(-c4ccc(-c5cnc([C@@H]6CCCN6C(=O)[C@H](NC(=O)OC)c6ccccc6)[nH]5)cc4)cc3)cc2)[nH]1)C(C)C` [Example 193], the EC50 in assay [1] (RLuc reporter) is 0.001 to 0.999 nM; in assay [2] (read-out: 1b), 0.005 nM; in assay [3] (RLuc reporter), 0.001 to 0.999 nM; in assay [4] (read-out: 3a, genotype 3a NS5A chimeric 1b Con1 replicon) it was 0.001 to 0.99 nM.

For `COC(=O)NC(C(=O)N1C[C@H](C)C[C@H]1c1ncc(-c2ccc(-c3ccc4cc(-c5cnc([C@@H]6CCCN6C(=O)[C@@H](NC(=O)OC)C6CCOCC6)[nH]5)ccc4c3)cc2)[nH]1)c1cccnc1` (some centres unmarked) [Example 214], the EC50 in assay [1] (setting [5]) was 0.001 to 0.999 nM; in assay [2] (setting [6]), 0.06 nM; in assay [3] (setting [5]), 0.001 to 0.999 nM; in assay [4] (setting [7]) it was 0.001 to 0.99 nM.

Regarding `COC(=O)N[C@H](C(=O)N1[C@@H]2CC[C@@H](C2)[C@H]1c1ncc(-c2ccc(-c3ccc4c(ccc5nc([C@@H]6CCCN6C(=O)[C@@H](NC(=O)OC)C6CCOCC6)[nH]c54)c3)cc2)[nH]1)C(C)C` [Example 82], the EC50 in assay [1] (setting [8]) was 0.001 to 0.999 nM; in assay [2] (setting [9]), 0.042 nM; in assay [3] (setting [8]) it was 0.001 to 0.999 nM; in assay [4] (setting [10]), 0.001 to 0.99 nM.

As for `COC(=O)N[C@H](C(=O)N1CCC[C@H]1c1ncc(-c2ccc3c(c2)CCc2cc(-c4ccc5nc([C@@H]6CCCN6C(=O)[C@H](NC(=O)OC)c6ccccc6)[nH]c5c4)ccc2-3)[nH]1)C(C)C` [Example 189], the EC50 was 0.001 to 0.999 nM in assay [1] (setting [5]), 0.006 nM in assay [2] (setting [6]), 0.001 to 0.999 nM in assay [3] (setting [5]) and 0.001 to 0.99 nM in assay [4] (setting [7]).

Regarding `COC(=O)N[C@H](C(=O)N1CCC[C@H]1c1ncc(-c2nc3cc4sc(-c5cnc([C@@H]6CCCN6C(=O)[C@@H](NC(=O)OC)C(C)C)[nH]5)nc4cc3s2)[nH]1)C(C)C` [Example 141], the EC50 in assay [1] (setting [5]) is 1 to 44 nM; in assay [2] (setting [6]), 0.181 nM; in assay [3] (setting [5]), 1 to 44 nM; in assay [4] (setting [7]), above 5 nM.

`CCN(CC)[C@@H](C(=O)N1CCC[C@H]1c1ncc(-c2ccc(-c3ccc4cc(-c5cnc([C@@H]6CCCN6C(=O)[C@@H](NC(=O)OC)C6CCOCC6)[nH]5)ccc4c3)cc2)[nH]1)c1ccccc1` [Example 171]: the EC50 is 0.001 to 0.999 nM in assay [1] (setting [5]), 0.026 nM in assay [2] (setting [6]), 0.001 to 0.999 nM in assay [3] (setting [5]) and 0.001 to 0.99 nM in assay [4] (setting [7]).

With `COC(=O)N[C@H](C(=O)N1C[C@H](C)C[C@H]1c1ncc(-c2cc3cc4sc(-c5cnc([C@@H]6C[C@@H](C)CN6C(=O)[C@@H](NC(=O)OC)C(C)C)[nH]5)cc4cc3s2)[nH]1)C(C)C` [Example 121], the EC50 in assay [1] (setting [5]) is 0.001 to 0.999 nM; in assay [2] (setting [6]), 0.011 nM; in assay [3] (setting [5]) it was 0.001 to 0.999 nM; in assay [4] (setting [7]) it was 1 to 4.99 nM.

`COC(=O)NC(C(=O)N1CC2(C[C@H]1c1nc3c([nH]1)-c1ccc(-c4ccc5c(ccc6nc([C@@H]7CCCN7C(=O)[C@@H](NC(=O)OC)C(C)C)[nH]c65)c4)cc1CC3)OCCO2)C1CCOCC1` (some centres unmarked) [Example 87]: the EC50 is 0.001 to 0.999 nM in assay [1] (setting [8]), 0.163 nM in assay [2] (setting [9]), 0.001 to 0.999 nM in assay [3] (setting [8]) and 0.001 to 0.99 nM in assay [4] (setting [10]).
